Reference: patent US7618816B2, “Metal-binding therapeutic peptides” (Ontherix, Inc., priority 2005, dated 2009)
Several values for one entry are separate records, joined by “and”; a condition that tells them apart may be missing. Identical values can stand only once. Where a SMILES comes first, the peptide text is derived from it. Where no end group is shown, it is not given here. The star is where a group is joined. Biotin = O=C1N[C@H]2[C@H](CS[C@H]2CCCCC(=O)*)N1

Experiments:
CCRF-CEM = assay: Cell survival, mutants of MDOKSH peptide; type: cell-based; conditions: for CELL SURVIVAL, CCRF-CEM: expressed relative to the activity of the parental peptide MDOKSH
Description: (§1) In order to maximize the effects of cytotoxic peptides, alanine scanning of one peptide (MDOKSH) was undertaken as an illustration. 48 mutants were synthesized, purified and tested in CCRF-CEM and MCF-7. The cytotoxicity of the 48 peptides was strongly correlated in the two cell line assay systems (r=0.606). […] The core MBD sequence may, if desired, be excluded from the region to be explored by mutagenesis, in order to expedite the experiment.

MCF-7 [1] = assay: Cell survival, mutants of MDOKSH peptide; type: cell-based; set-up: CELL SURVIVAL, MCF-7: unit not given here; conditions: for CELL SURVIVAL, MCF-7: expressed relative to the activity of the parental peptide MDOKSH
Description: as §1

cancer cells = assay: Selective cytotoxicity, cancer cells versus normal counterparts; type: cell-based, human
Description: (§2) Also, peptides such as NFKB and CSK are of interest, targeting stress-coping mechanisms such as inflammation. The breast cancer lines tested are HS578T, MX-1, MDA-MB231, MDA-MB435 and MCF7. Leukemia cell lines tested for cytotoxicity effects with these MBD-tagged peptides are CCRF-CEM, RPMI-8226 and MOLT-4. Overall, MCF-7 and CCRF-CEM yield the most consistent data and the strongest effect across the board (Table 12). In addition, elevated levels of cytotoxicity are observed when multiple peptides are combined while keeping the overall amount of peptide added constant. Cytotoxicity increases with the number of peptides added per cocktail and is further enhanced by combining peptide cocktail treatment with paclitaxel.

MOLT-4 = assay: Cytotoxicity of MBD therapeutic peptides; type: cell-based, human; conditions: relative to equal dose of control MBD peptide, only p < 0.05 shown, 1-4 experiments
Description: as §2

MDA-MB231 = assay: Cytotoxicity of MBD therapeutic peptides; type: cell-based, human; conditions: relative to equal dose of control MBD peptide, only p < 0.05 shown, 1-4 experiments
Description: as §2

MCF-7 [2] = assay: Cytotoxicity of MBD therapeutic peptides; type: cell-based, human; conditions: relative to equal dose of control MBD peptide, only p < 0.05 shown, 1-4 experiments
Description: as §2

MDA-MB435 = assay: Cytotoxicity of MBD therapeutic peptides; type: cell-based; conditions: relative to equal dose of control MBD peptide, only p < 0.05 shown, 1-4 experiments
Description: as §2

SR = assay: Cytotoxicity of MBD therapeutic peptides; type: cell-based; conditions: relative to equal dose of control MBD peptide, only p < 0.05 shown, 1-4 experiments
[3] = test system: shRNA containing the lambda nutR hairpin loop; assay: Bio-KGF binding of shRNA on Ni-NTA plate, Ribogreen; conditions: for Ribogreen Fluorescence: mean of eight readings
Description: Peptide Bio-KGF binds shRNA: Bio-KGF peptide was synthesized by Genemed Synthesis, Inc. (S. San Francisco, Calif.) as a 40-mer containing an MBD sequence and an RNA-hairpin binding domain from the N-terminus of bacteriophage lambda N protein: Bio-KGF: (“N”-terminal biotin) . . . KGF YKK KQC RPS KGR KRG FCW AQT RRR ERR AEK QAQ WKA A . . . (“C” terminus) (SEQ ID NO: 11)
An shRNA designed to silence the human beclin gene was designed to include a hairpin sequence corresponding to the NutR box of bacteriophage lambda mRNA (the binding target for the Bio-KGF peptide) and was amplified using the Silencer™ siRNA
Various molar excess amounts of Bio-KGF (ranging from 63 pg to 2 ug per well; similar results were obtained across this range) were attached to a Ni-NTA plate (Qiagen Inc., Carlsbad, Calif. for 1 hour and blocked overnight with 3% BSA at 4 degrees C. in the refrigerator, and washed with PBS/Tween and TE buffers. RNA dilutions were added in TE buffer, incubated for 30 min on shaker, then for 30 min on bench at room temperature. After one wash with TE buffer, Ribogreen reagent (Ribogreen RNA Quantitation Reagent and Kit from Molecular Probes/Invitrogen) was added to the wells, incubated 5 minutes, and fluorescence was read on a fluorescent plate reader. The results are listed in Table 8 (each number is a mean of eight readings): […]

RPMI-8826 = assay: Cytotoxicity of MBD therapeutic peptides; type: cell-based, human; conditions: relative to equal dose of control MBD peptide, only p < 0.05 shown, 1-4 experiments
Description: as §2

`CC(C)C[C@H](NC(=O)[C@H](C)NC(=O)[C@H](CCCCN)NC(=O)[C@H](Cc1c[nH]c2ccccc12)NC(=O)[C@H](CS)NC(=O)[C@H](Cc1ccccc1)NC(=O)CNC(=O)[C@H](CCCNC(=N)N)NC(=O)[C@H](CCCCN)NC(=O)[C@H](CCCNC(=N)N)NC(=O)CNC(=O)[C@H](CCCCN)NC(=O)[C@H](CO)NC(=O)[C@@H]1CCCN1C(=O)[C@H](CCCNC(=N)N)NC(=O)[C@H](CS)NC(=O)[C@H](CCC(N)=O)NC(=O)[C@H](CCCCN)NC(=O)[C@H](CCCCN)NC(=O)[C@H](CCCCN)NC(=O)[C@H](Cc1ccc(O)cc1)NC(=O)[C@H](Cc1ccccc1)NC(=O)CNC(=O)[C@H](CCCCN)NC(=O)[C@H](CCCCN)NC(=O)CCCC[C@@H]1SC[C@@H]2NC(=O)N[C@@H]21)C(=O)N[C@@H](Cc1ccc(O)cc1)C(=O)N[C@@H](Cc1c[nH]c2ccccc12)C(=O)N[C@@H](CC(=O)O)C(=O)N[C@@H](CC(C)C)C(=O)N[C@@H](Cc1ccc(O)cc1)C(=O)N[C@@H](CCC(=O)O)C(=O)O` [Mutant 27] (Biotin-KKGFYKKKQCRPSKGRKRGFCWKALYWDLYE-OH) was tested, and the “Cytotoxicity versus parental MDOKSH (in words)” value (CCRF-CEM; CCRF-CEM) was “greatly enhanced cytotoxicity” and the “Cytotoxicity versus parental MDOKSH (in words)” value (MCF-7 [1]; MCF-7) was “greatly enhanced cytotoxicity”.

For “KKGFYKKKQCRPSKGRKRGFCWAPLYWDLYE [Mutant 28]”, the “CELL SURVIVAL, CCRF-CEM” value (CCRF-CEM) was 60.1 ± 11.1 and the “CELL SURVIVAL, MCF-7” value (MCF-7 [1]) was 52.7 ± 11.7.

`CC(C)C[C@H](NC(=O)[C@H](CC(C)C)NC(=O)[C@H](CCCCN)NC(=O)[C@H](Cc1c[nH]c2ccccc12)NC(=O)[C@H](CC(C)C)NC(=O)[C@H](CC(=O)O)NC(=O)[C@H](CO)NC(=O)[C@H](Cc1ccccc1)NC(=O)[C@@H](NC(=O)[C@H](CCC(=O)O)NC(=O)CCCC[C@@H]1SC[C@@H]2NC(=O)N[C@@H]21)[C@@H](C)O)C(=O)N[C@@H](CCCCN)C(=O)N[C@@H](CCCCN)C(=O)NCC(=O)N[C@@H](Cc1ccccc1)C(=O)N[C@@H](Cc1ccc(O)cc1)C(=O)N[C@@H](CCCCN)C(=O)N[C@@H](CCCCN)C(=O)N[C@@H](CCCCN)C(=O)N[C@@H](CCC(N)=O)C(=O)N[C@@H](CS)C(=O)N[C@@H](CCCNC(=N)N)C(=O)N1CCC[C@H]1C(=O)N[C@@H](CO)C(=O)N[C@@H](CCCCN)C(=O)NCC(=O)N[C@@H](CCCNC(=N)N)C(=O)N[C@@H](CCCCN)C(=O)N[C@@H](CCCNC(=N)N)C(=O)NCC(=O)N[C@@H](Cc1ccccc1)C(=O)N[C@@H](CS)C(=O)N[C@@H](Cc1c[nH]c2ccccc12)C(=O)O` [PEP-1] (Biotin-ETFSDLWKLLKKGFYKKKQCRPSKGRKRGFCW-OH) was tested, and the “Cytotoxic effect on cancer cells versus normal counterparts (in words)” value (cancer cells) was “strong cytotoxic effect on cancer cells but not their human counterparts”.

With `CC[C@H](C)[C@H](NC(=O)[C@H](CC(=O)O)NC(=O)[C@H](CO)NC(=O)[C@H](Cc1ccccc1)NC(=O)[C@@H](NC(=O)[C@H](CCC(=O)O)NC(=O)CCCC[C@@H]1SC[C@@H]2NC(=O)N[C@@H]21)[C@@H](C)O)C(=O)N[C@@H](Cc1c[nH]c2ccccc12)C(=O)N[C@@H](CCCCN)C(=O)N[C@@H](CC(C)C)C(=O)N[C@@H](CC(C)C)C(=O)N[C@@H](CCCCN)C(=O)N[C@@H](CCCCN)C(=O)NCC(=O)N[C@@H](Cc1ccccc1)C(=O)N[C@@H](Cc1ccc(O)cc1)C(=O)N[C@@H](CCCCN)C(=O)N[C@@H](CCCCN)C(=O)N[C@@H](CCCCN)C(=O)N[C@@H](CCC(N)=O)C(=O)N[C@@H](CS)C(=O)N[C@@H](CCCNC(=N)N)C(=O)N1CCC[C@H]1C(=O)N[C@@H](CO)C(=O)N[C@@H](CCCCN)C(=O)NCC(=O)N[C@@H](CCCNC(=N)N)C(=O)N[C@@H](CCCCN)C(=O)N[C@@H](CCCNC(=N)N)C(=O)NCC(=O)N[C@@H](Cc1ccccc1)C(=O)N[C@@H](CS)C(=O)N[C@@H](Cc1c[nH]c2ccccc12)C(=O)O` [PEP-3] (Biotin-ETFSDIWKLLKKGFYKKKQCRPSKGRKRGFCW-OH) the “% viability @ 48 hr/25 ug/ml peptide, MOLT-4” value (MOLT-4) was 73.0 ± 5.5% and 58.3 ± 16.5%, the “% viability @ 48 hr/25 ug/ml peptide, MDA-MB231” value (MDA-MB231) was 32.9 ± 1.7% and the “% viability @ 48 hr/25 ug/ml peptide, MCF-7” value (MCF-7 [2]) was 27.5 ± 15.2% and 30.6 ± 5.7% and 21.7 ± 1.5%. For the same compound, the “% viability @ 48 hr/25 ug/ml peptide, MDA-MB435” value (MDA-MB435) was 16.0 ± 2.0% and 27.0 ± 3.9%, the “% viability @ 48 hr/25 ug/ml peptide, SR” value (SR) was 75.9 ± 15.7% and the “Cytotoxic effect on cancer cells versus normal counterparts (in words)” value (cancer cells) was “strong cytotoxic effect on cancer cells but not their human counterparts”.

For “KKGFYKKKQCRPSKGRKRGFCWKPLYWALYE [Mutant 23]”, the “CELL SURVIVAL, CCRF-CEM” value (CCRF-CEM) was 74.5 ± 8.0 and the “CELL SURVIVAL, MCF-7” value (MCF-7 [1]) was 58.8 ± 8.1.

With “AKGFYKKKQCRPSKGRKRGFCWKPLYWDLYE [Mutant 48]” the “CELL SURVIVAL, CCRF-CEM” value (CCRF-CEM) was 71.8 ± 10.7 and the “CELL SURVIVAL, MCF-7” value (MCF-7 [1]) was 61.6 ± 3.1.

In the case of “KKGFYKKKQCRPSKGRKRGFCWKPLYWDLYEI [Mutant 6]”, the “CELL SURVIVAL, CCRF-CEM” value (CCRF-CEM) is reported as 62.3 ± 5.0 and the “CELL SURVIVAL, MCF-7” value (MCF-7 [1]) is reported as 68.5 ± 6.5.

With `CC(C)C[C@H](NC(=O)[C@H](CC(=O)O)NC(=O)[C@H](Cc1c[nH]c2ccccc12)NC(=O)[C@H](Cc1ccc(O)cc1)NC(=O)[C@H](CC(C)C)NC(=O)[C@@H]1CCCN1C(=O)[C@H](CCCCN)NC(=O)[C@H](Cc1c[nH]c2ccccc12)NC(=O)[C@H](CS)NC(=O)[C@H](Cc1ccccc1)NC(=O)CNC(=O)[C@H](CCCNC(=N)N)NC(=O)[C@H](CCCCN)NC(=O)[C@H](CCCNC(=N)N)NC(=O)CNC(=O)[C@H](CCCCN)NC(=O)[C@H](CO)NC(=O)[C@@H]1CCCN1C(=O)[C@H](CCCNC(=N)N)NC(=O)[C@H](CS)NC(=O)[C@H](CCC(N)=O)NC(=O)[C@H](CCCCN)NC(=O)[C@H](CCCCN)NC(=O)[C@H](CCCCN)NC(=O)[C@H](Cc1ccc(O)cc1)NC(=O)[C@H](Cc1ccccc1)NC(=O)CNC(=O)[C@H](CCCCN)NC(=O)[C@H](CCCCN)NC(=O)CCCC[C@@H]1SC[C@@H]2NC(=O)N[C@@H]21)C(=O)N[C@@H](Cc1ccc(O)cc1)C(=O)N[C@@H](CCC(=O)O)C(=O)O` [MDOKSH] (Biotin-KKGFYKKKQCRPSKGRKRGFCWKPLYWDLYE-OH) the “CELL SURVIVAL, CCRF-CEM” value (CCRF-CEM) was 100 and the “CELL SURVIVAL, MCF-7” value (MCF-7 [1]) was 100.

For “KGF YKK KQC RPS KGR KRG FCW AQT RRR ERR AEK QAQ WKA A (Biotin-KGFYKKKQCRPSKGRKRGFCWAQTRRRERRAEKQAQWKAA; cysteine pairing not given here) [Bio-KGF]”, the “Binding of shRNA (in words)” value [3] was “binds the shRNA”, the “Ribogreen Fluorescence” value ([3]; 2.7 ng shRNA per well) was 853 ± 600 and the “Ribogreen Fluorescence” value ([3]; 5.5 ng shRNA per well) was 2058 ± 781. The “Ribogreen Fluorescence” value ([3]; 11 ng shRNA per well) was 6016 ± 2977, the “Ribogreen Fluorescence” value ([3]; 22 ng shRNA per well) was 11924 ± 3650 and the “Ribogreen Fluorescence” value ([3]; 44 ng shRNA per well) was 42053 ± 12769. For the same compound, the “Ribogreen Fluorescence” value ([3]; 88 ng shRNA per well) was 81819 ± 24656.

“Biotin-KKGFYKKKQCRPSKGRKRGFCWARIDDMSSRIDDLEKNIADL (cysteines drawn unpaired) [M9HSBP1]” was tested, and the “% viability @ 48 hr/25 ug/ml peptide, MOLT-4” value (MOLT-4) was 77.1 ± 20.3% and the “% viability @ 48 hr/25 ug/ml peptide, RPMI-8826” value (RPMI-8826) was 77.7 ± 5.2%.

“KKGFYKKKQCRPSKGRKRGFCWKPLYWDLYEP [Mutant 11]” was tested, and the “CELL SURVIVAL, CCRF-CEM” value (CCRF-CEM) was 64.8 ± 7.2 and the “CELL SURVIVAL, MCF-7” value (MCF-7 [1]) was 59.6 ± 10.7.

“KKGFYKKKQCRPSKGRKRGFCWKPLYWDLYEM [Mutant 9]” was tested, and the “CELL SURVIVAL, CCRF-CEM” value (CCRF-CEM) was 63.8 ± 4.6 and the “CELL SURVIVAL, MCF-7” value (MCF-7 [1]) was 56.8 ± 8.1.
